The target in the first experiment is T1, human PAH with the R408W mutation (Homo sapiens, UniProt P00439, R408W).
T1 construct: expressed in transfected cells
T1 sequence (P00439 1-452 R408W): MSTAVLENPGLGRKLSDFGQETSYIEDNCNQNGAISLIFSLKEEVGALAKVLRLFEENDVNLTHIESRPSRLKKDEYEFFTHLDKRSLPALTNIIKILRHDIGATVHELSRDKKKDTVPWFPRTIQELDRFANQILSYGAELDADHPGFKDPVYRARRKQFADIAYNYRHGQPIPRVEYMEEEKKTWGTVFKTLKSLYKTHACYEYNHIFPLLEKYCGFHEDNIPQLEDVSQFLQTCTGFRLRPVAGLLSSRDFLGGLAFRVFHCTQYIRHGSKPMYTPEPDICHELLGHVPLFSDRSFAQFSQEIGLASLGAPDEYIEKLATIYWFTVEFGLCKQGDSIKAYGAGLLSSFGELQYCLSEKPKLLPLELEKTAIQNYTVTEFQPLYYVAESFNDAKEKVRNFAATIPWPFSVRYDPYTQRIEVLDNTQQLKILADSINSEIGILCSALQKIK
Put plainly: Cell Based Phenylalanine Flux Assay.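 Also: Ten-point dose curve from 2-fold serial dilutions, run in duplicate at 0.5% DMSO final, tracer step used 20 µM sepiapterin and 800 µM labeled phenylalanine.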 The arrangement: scale not given here. To be noted: A375 cells expressing R408W PAH; 24 hrs with compound, then 20 μM sepiapterin and 800 μM 13C9,15N-Phenylalanine for 4 hours; 13C-Tyrosine in media by LC-MS; average where tested multiple times.
Consider `O=C(c1ocnc1C(F)(F)F)N1CCc2[nH]cnc2C1c1cc2c(Cl)cccn2n1` (stereo not shown), for which the AC50 result is “E. E”.

Staying with this experiment, now noted: A375 cells expressing R408W PAH; 24 hrs with compound, then 20 μM sepiapterin and 800 μM 13C9,15N-Phenylalanine for 4 hours; 13C-Tyrosine in media by LC-MS; average where tested multiple times; read-out: AC50.
For the molecule `FC1(F)CC(c2nnc(N3CCc4[nH]cnc4[C@H]3c3cc4c(C(F)(F)F)cccn4n3)o2)C1` (single isomer, unassigned), the AC50 lay in the range of 1 to 5 µM.

Turning to `Cc1nnc(C(=O)N2CCc3[nH]cnc3[C@H]2c2cc3c(OC(F)F)cccn3n2)o1` (single isomer, unassigned), the AC50 was 1 to 5 µM.

The same experiment, now with this note: A375 cells expressing human R408W PAH; 24 hrs compound incubation; 13C-Tyrosine by LC-MS; average where tested multiple times; read-out: AC50.
As for `Cc1c(-c2nnc(C(=O)N3CCc4[nH]cnc4[C@@H]3c3cc4cccc(C(F)F)n4n3)o2)cnn1C` [Example 1367, (R)-(4-(7-(difluoromethyl)pyrazolo[1,5-a]pyridin-2-yl)-6,7-dihydro-1H-imidazo[4,5-c]pyridin-5(4H)-yl)(5-(1,5-dimethyl-1H-pyrazol-4-yl)-1,3,4-oxadiazol-2-yl)methanone], the AC50 fell in the range of 1 to 5 µM.

Regarding `Cn1ccc(-c2nnc(C(=O)N3CCc4[nH]cnc4[C@@H]3c3cc4cccc(C(F)(F)F)n4n3)o2)n1` [Example 1031, (R)-(5-(1-methyl-1H-pyrazol-3-yl)-1,3,4-oxadiazol-2-yl)(4-(7-(trifluoromethyl)pyrazolo[1,5-a]pyridin-2-yl)-6,7-dihydro-1H-imidazo [4,5-c]pyridin-5(4H)-yl)methanone], the AC50 was over 5 µM. As to `Cn1ccc(-c2nnc(C(=O)N3CCc4[nH]cnc4[C@H]3c3cc4ccccn4n3)o2)n1` [Example 658, (S)-(5-(1-methyl-1H-pyrazol-3-yl)-1,3,4-oxadiazol-2-yl)(4-(pyrazolo[1,5-a]pyridin-2-yl)-6,7-dihydro-1H-imidazo[4,5-c]pyridin-5(4H)-yl)methanone], the AC50 lay in the range of 1 to 5 µM.

Still in this experiment, the particulars now being: A375 cells expressing human R408W PAH; 24 hrs with compound, then sepiapterin and 13C9,15N-Phenylalanine for 4 hours; 13C-Tyrosine by LC-MS; average where tested multiple times; read-out: AC50.
Consider `CC(C)c1cccn2nc([C@H]3c4nc[nH]c4CCN3c3nnc(-c4cccnc4F)o3)cc12` [Example 2334, (R)-2-(2-fluoropyridin-3-yl)-5-(4-(4-isopropylpyrazolo[1,5-a]pyridin-2-yl)-1,4,6,7-tetrahydro-5H-imidazo[4,5-c]pyridin-5-yl)-1,3,4-oxadiazole], for which the AC50 was over 5 µM.

`O=C(c1nnc(-c2ccn(C(F)F)n2)o1)N1CCc2[nH]cnc2[C@@H]1c1cc2cccc(C(F)F)n2n1` [Example 1443, (R)-(5-(1-(difluoromethyl)-1H-pyrazol-3-yl)-1,3,4-oxadiazol-2-yl)(4-(7-(difluoromethyl)pyrazolo[1,5-a]pyridin-2-yl)-6,7-dihydro-1H-imidazo[4,5-c]pyridin-5(4H)-yl)methanone]: the AC50 lay in the range of 1 to 5 µM. Turning to `CC(C)(C)c1ncc(C(=O)N2CCc3[nH]cnc3[C@H]2c2cc3ccccn3n2)o1` [Example 1866, (S)-(2-(tert-butyl)oxazol-5-yl)(4-(pyrazolo[1,5-a]pyridin-2-yl)-1,4,6,7-tetrahydro-5H-imidazo[4,5-c]pyridin-5-yl)methanone], the AC50 was under 0.5 µM. Turning to `Cc1cccc(-c2nnc(C(=O)N3CCc4[nH]cnc4[C@@H]3c3cc4c(F)cccn4n3)o2)n1` [Example 1471, (R)-(4-(4-fluoropyrazolo [1,5-a]pyridin-2-yl)-6,7-dihydro-1H-imidazo[4,5-c]pyridin-5(4H)-yl)(5-(6-methylpyridin-2-yl)-1,3,4-oxadiazol-2-yl)methanone], the AC50 was in the range of 1 to 5 µM.

On to `Cn1ccc(-c2nnc(C(=O)N3CCc4[nH]cnc4[C@@H]3c3cc4c(C5CC5)cccn4n3)o2)n1` [Example 1901], for which the AC50 was over 5 µM.

Turning to `Cc1c(-c2nnc(C(=O)N3CCc4[nH]cnc4[C@@H]3c3cc4c(C(C)C)cccn4n3)o2)cnn1C` [Example 1949, (R)-(5-(1,5-dimethyl-1H-pyrazol-4-yl)-1,3,4-oxadiazol-2-yl)(4-(4-isopropylpyrazolo [1,5-a]pyridin-2-yl)-1,4,6,7-tetrahydro-5H-imidazo[4,5-c]pyridin-5-yl)methanone], the AC50 lay in the range of 1 to 5 µM. Regarding `Cc1nn(C)cc1-c1nnc(C(=O)N2CCc3[nH]cnc3[C@H]2c2cc3c(C(F)F)cccn3n2)o1` [Example 1466, (S)-(4-(4-(difluoromethyl)pyrazolo[1,5-a]pyridin-2-yl)-6,7-dihydro-1H-imidazo[4,5-c]pyridin-5(4H)-yl)(5-(1,3-dimethyl-1H-pyrazol-4-yl)-1,3,4-oxadiazol-2-yl)methanone], the AC50 is under 0.5 µM.

Values taken from patent US12673961B2 (Agios Pharmaceuticals, Inc., priority 2022, dated 2026).
